Measurements taken from ChEMBL document CHEMBL4304832, “Novel Pyrazole-Containing Compounds Active against Mycobacterium tuberculosis” (ACS Med Chem Lett, 2019).
Active and inactive are the calls of the source. The calls are words filed in the database; no cut-off is given here.

Experiments:
Format in all cases: functional, organism-based
[1] = system: Mycobacterium tuberculosis; experiment: Antitubercular activity against Mycobacterium tuberculosis H37Rv harboring mmpL3 P239H mutant at 20 uM incubated for 4 weeks by resazurin dye based fluorescence assay
[2] = system: Mycobacterium tuberculosis; experiment: Antitubercular activity against Mycobacterium tuberculosis H37Rv harboring lprM V86V mutant at 25 uM incubated for 4 weeks by resazurin dye based fluorescence assay
[3] = system: Mycobacterium tuberculosis; experiment: Antitubercular activity against Mycobacterium tuberculosis H37Rv harboring fadD26 (336 amino acids) insertion mutant at 20 uM incubated for 4 weeks by resazurin dye based fluorescence assay
[4] = system: Mycobacterium tuberculosis; experiment: Antitubercular activity against Mycobacterium tuberculosis H37Rv harboring mmpL3 V240A mutant at 12.5 uM incubated for 4 weeks by resazurin dye based fluorescence assay
[5] = system: Mycobacterium tuberculosis; experiment: Antitubercular activity against Mycobacterium tuberculosis H37Rv harboring ppsB L1476S mutant at 12.5 uM incubated for 4 weeks by resazurin dye based fluorescence assay

Compound: CC(C)c1ccc(-c2cc(CN3CCN(c4ccccn4)CC3)nn2C2CCCCC2)cc1
- Activity [1]: Active
- Activity [2]: Active
- Activity [3]: Active

Compound: COC1CCN(Cc2cc(-c3ccc(C(C)C)cc3)n(-c3ccc(F)cc3)n2)CC1
- Activity [4]: Active
- Activity [5]: Active
